Results reported in patent US20220135547A1, “HETEROCYCLIC LOW-MOLECULAR SAPP MIMETICS, A PHARMACEUTICAL COMPOSITION AND METHODS FOR PRODUCING AND USING SAME” (priority 2010, published 2022).

Tested on: 1-3 days old chicken memory
Test: one-trial passive avoidance learning task in chicks (weak training, test 24 hours after training)
Format: in vivo
Settings: for dosage at which the maximum effect was observed: weak training, chicks
Procedure: The method of one-trial passive avoidance learning task has been used in order to investigate the compounds action on 1-3 days old chicken memory. This is the basic method using for investigation the mechanisms of memory formation. Cross chickens (males) “Ptichnoe” were used in experiments. The animals were delivered at the day of hatching and were kept in pairs in the cages which measured 20×25×20 cm, with constant access to water and feed, at a temperature 28° C. and a light cycle of 12:12 hours. The minimal adaptation time was two hours.
The compounds were dissolved in sterile saline. Intraperitoneal injections of 0.1 ml were used for systemic administration. Bilateral intracranial injections were administrated to the lateral ventricles with […] microsyringe («Hamilton») using plastic headholder. The volume of injections was […] for hemisphere. To control the localizations of injections the monitoring of the surface of skull and brain were carried out after the experiment and decapitation. Control groups received saline of the same volume.
The experiments were conducted according the following scheme: 20 minutes before training the animals were pretrained by being offered two neutral (wet with water) […] fixed to a rod. For further training chicks that pecked each bead within first 10 sec were used. Chicks were offered an aversive bead wet with pungent solution (10% solution of methylanthranilate in ethanol). […] Testing was conducted 24 hours after training by offering within 10 seconds a similar but dry aversive bead, and then—a neutral bead. The avoidance of aversive bead was estimated as a long-term memory.

[1] = administrated either immediately before training, or 4 hours after completion of the training

SMILES | dosage at which the maximum effect was observed (10 min training (route not given)) | effect on memory [1] | dosage at which the maximum effect was observed, per animal (equivalent of 0.1 mg/kg, 10 min training) | dosage at which the maximum effect was observed (intracranial injection 10-30 min before training) | effect on memory (oral administration 30 min before weak treatment, dosage 0.1 to 1.0 mg/kg)
O=C(NCCc1ccncc1)C(NCCc1ccncc1)c1ccc2c(c1)OCO2 (stereo not drawn) [ACB-0005, 2-(1,3-benzodioxole-5-yl)-N-(2-pyridine-4-ylethyl)-2-[(2-pyridine-4-ylethyl)-amino]acetamid] | 0.1 mg/kg | may enhance memory | 4 µg per animal | 5 mg | stimulating effect on memory
COC(=O)c1ccc(C(NCCc2ccncc2)C(=O)NCCc2ccncc2)cc1 (stereo not drawn) [ACB-0002, Methyl 4-{2-oxo-1,2-bis[(2-pyridine-4-ylethyl)amino]ethyl}benzoate] | – | may enhance memory | – | – | –
